Laboratory results taken from patent US7138361B2, “Herbicidal heterocycles” (E. I. du Pont de Nemours and Company, priority 2000, dated 2006).

What was measured:
Test in all cases: Test C preemergence
Format in all cases: in vivo
Sunflower [1] = conditions: Rate 250 g/ha, scale 0 to 100, 0 no effect, 100 complete control
Nightshade [2] = conditions: Rate 500 g/ha, visual evaluation after 12 to 14 days
[3] = system: yellow nutsedge (Cyperus esculentus); conditions: for Plant response rating (0 to 100), Nutsedge: Rate 500 g/ha, visual evaluation after 12 to 14 days
Procedure, shortened: (§1)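 Compounds in non-phytotoxic solvent with surfactant applied preemergence to planted seeds and postemergence to plants at 1- to 4-leaf stage (2–18 cm). Kept in greenhouse 12–14 days, then visually rated against controls on a 0 (no effect) to 100 (complete control) scale.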

corn (Zea mays) = conditions: for Plant response rating (0 to 100), Corn: Rate 500 g/ha, visual evaluation after 12 to 14 days
Procedure, shortened: as §1

soybean (Glycine max) = conditions: for Plant response rating (0 to 100), Soybean: Rate 500 g/ha, visual evaluation after 12 to 14 days
Procedure, shortened: as §1

[4] = system: woolly cupgrass (Eriochloa villosa); conditions: for Plant response rating (0 to 100), Cupgrass, Woolly: Rate 500 g/ha, visual evaluation after 12 to 14 days
Procedure, shortened: as §1

[5] = system: morningglory (Ipomoea hederacea)
Procedure, shortened: as §1

kochia (Kochia scoparia) = conditions: for Plant response rating (0 to 100), Kochia: Rate 500 g/ha, visual evaluation after 12 to 14 days
Procedure, shortened: as §1

Sunflower [6] = conditions: Rate 125 g/ha; scale 0 to 100, 0 no effect, 100 complete control
Nightshade [7] = system: Nightshade
[8] = system: velvetleaf (Abutilon theophrasti); conditions: for Plant response rating (0 to 100), Velvetleaf: Rate 500 g/ha, visual evaluation after 12 to 14 days
Procedure, shortened: as §1

[9] = system: crabgrass (Digitaria sanguinalis); conditions: for Plant response rating (0 to 100), Crabgrass: Rate 500 g/ha, visual evaluation after 12 to 14 days
Procedure, shortened: as §1

[10] = system: common ragweed (Ambrosia elatior); conditions: for Plant response rating (0 to 100), Ragweed, Common: Rate 500 g/ha, visual evaluation after 12 to 14 days
Procedure, shortened: as §1

[11] = system: cocklebur (Xanthium strumarium); conditions: for Plant response rating (0 to 100), Cocklebur: Rate 500 g/ha, visual evaluation after 12 to 14 days
Procedure, shortened: as §1

[12] = system: johnsongrass (Sorghum halepense); conditions: for Plant response rating (0 to 100), Johnsongrass: Rate 500 g/ha, visual evaluation after 12 to 14 days
Procedure, shortened: as §1

[13] = system: pigweed (Amaranthus retroflexus); conditions: for Plant response rating (0 to 100), Pigweed: Rate 500 g/ha, visual evaluation after 12 to 14 days
Procedure, shortened: as §1

[14] = system: giant foxtail (Setaria faberii); conditions: for Plant response rating (0 to 100), Foxtail, Giant: Rate 500 g/ha, visual evaluation after 12 to 14 days
Procedure, shortened: as §1

[15] = system: goosegrass (Eleusine indica); conditions: for Plant response rating (0 to 100), Goosegrass: Rate 500 g/ha, visual evaluation after 12 to 14 days
Procedure, shortened: as §1

[16] = system: lambsquarters (Chenopodium album); conditions: for Plant response rating (0 to 100), Lambsquarters: Rate 500 g/ha, visual evaluation after 12 to 14 days
Procedure, shortened: as §1

[17] = system: Surinam grass (Brachiaria decumbens); conditions: for Plant response rating (0 to 100), Surinam grass: Rate 500 g/ha, visual evaluation after 12 to 14 days
Procedure, shortened: as §1

[18] = system: bermudagrass (Cynodon dactylon); conditions: for Plant response rating (0 to 100 where 0 is no effect and 100 is complete control), Bermudagrass: Rate 500 g/ha, visual evaluation after 12 to 14 days
Procedure, shortened: as §1

Sunflower [19] = conditions: Rate 62 g/ha, scale 0 to 100
[20] = Rate 125 g/ha, scale 0 to 100, 0 no effect, 100 complete control
[21] = preemergence, Rate 62 g/ha, scale 0 to 100
[22] = preemergence, Rate 250 g/ha, scale 0 to 100, 0 no effect, 100 complete control
[23] = Rate 250 g/ha, scale 0 to 100, 0 no effect, 100 complete control

## CCC(CC)c1ccn(C2CCN(c3ccc(F)c(C(F)(F)F)c3)C2=O)n1 (stereo not shown) [Compound 144]
Sunflower [1]
  Plant response rating, Sunflower: 40
Nightshade [2]
  Plant response rating (0 to 100), Nightshade: 100
[3]; [20]
  Plant response rating, Nutsedge: 0
[3]; [21]
  Plant response rating, Nutsedge: 0
[3]; preemergence
  Plant response rating (0 to 100), Nutsedge: 0
[3]; [22]
  Plant response rating, Nutsedge: 0
Corn (Zea mays); [20]
  Plant response rating, Corn: 50
Corn (Zea mays); [21]
  Plant response rating, Corn: 30
Corn (Zea mays); preemergence
  Plant response rating (0 to 100), Corn: 60
Corn (Zea mays); [22]
  Plant response rating, Corn: 50
Soybean (Glycine max); [20]
  Plant response rating, Soybean: 50
Soybean (Glycine max); [21]
  Plant response rating, Soybean: 50
Soybean (Glycine max); preemergence
  Plant response rating (0 to 100), Soybean: 70
Soybean (Glycine max); [22]
  Plant response rating, Soybean: 70
[4]; [20]
  Plant response rating, Cupgrass, Woolly: 100
[4]; [21]
  Plant response rating, Cupgrass, Woolly: 100
[4]; preemergence
  Plant response rating (0 to 100), Cupgrass, Woolly: 100
[4]; [22]
  Plant response rating, Cupgrass, Woolly: 100
[5]; [20]
  Plant response rating, Morningglory: 0
[5]; preemergence, Rate 500 g/ha, visual evaluation after 12 to 14 days
  Plant response rating (0 to 100), Morningglory: 30
[5]; [22]
  Plant response rating, Morningglory: 30
Kochia (Kochia scoparia); [20]
  Plant response rating, Kochia: 100
Kochia (Kochia scoparia); [21]
  Plant response rating, Kochia: 90
Kochia (Kochia scoparia); preemergence
  Plant response rating (0 to 100), Kochia: 100
Kochia (Kochia scoparia); [22]
  Plant response rating, Kochia: 100
Sunflower [6]
  Plant response rating, Sunflower: 40
Nightshade [7]; Rate 62 g/ha, scale 0 to 100
  Plant response rating, Nightshade: 100
Nightshade [7]; [20]
  Plant response rating, Nightshade: 100
Nightshade [7]; [23]
  Plant response rating, Nightshade: 100
[8]; [20]
  Plant response rating, Velvetleaf: 0
[8]; [21]
  Plant response rating, Velvetleaf: 0
[8]; preemergence
  Plant response rating (0 to 100), Velvetleaf: 20
[8]; [22]
  Plant response rating, Velvetleaf: 20
[9]; [20]
  Plant response rating, Crabgrass: 100
[9]; [21]
  Plant response rating, Crabgrass: 100
[9]; preemergence
  Plant response rating (0 to 100), Crabgrass: 100
[9]; [22]
  Plant response rating, Crabgrass: 100
[10]; [20]
  Plant response rating, Ragweed, Common: 0
[10]; [21]
  Plant response rating, Ragweed, Common: 0
[10]; preemergence
  Plant response rating (0 to 100), Ragweed, Common: 50
[10]; [22]
  Plant response rating, Ragweed, Common: 30
[11]; [20]
  Plant response rating, Cocklebur: 60
[11]; [21]
  Plant response rating, Cocklebur: 50
[11]; preemergence
  Plant response rating (0 to 100), Cocklebur: 60
[11]; [22]
  Plant response rating, Cocklebur: 60
[12]; [20]
  Plant response rating, Johnsongrass: 90
[12]; [21]
  Plant response rating, Johnsongrass: 0
[12]; preemergence
  Plant response rating (0 to 100), Johnsongrass: 100
[12]; [22]
  Plant response rating, Johnsongrass: 100
[13]; [20]
  Plant response rating, Pigweed: 100
[13]; [21]
  Plant response rating, Pigweed: 100
[13]; preemergence
  Plant response rating (0 to 100), Pigweed: 100
[13]; [22]
  Plant response rating, Pigweed: 100
[14]; [20]
  Plant response rating, Foxtail, Giant: 100
[14]; [21]
  Plant response rating, Foxtail, Giant: 100
[14]; preemergence
  Plant response rating (0 to 100), Foxtail, Giant: 100
[14]; [22]
  Plant response rating, Foxtail, Giant: 100
[15]; [20]
  Plant response rating, Goosegrass: 100
[15]; [21]
  Plant response rating, Goosegrass: 100
[15]; preemergence
  Plant response rating (0 to 100), Goosegrass: 100
[15]; [22]
  Plant response rating, Goosegrass: 100
[16]; [20]
  Plant response rating, Lambsquarters: 100
[16]; [21]
  Plant response rating, Lambsquarters: 100
[16]; preemergence
  Plant response rating (0 to 100), Lambsquarters: 100
[16]; [22]
  Plant response rating, Lambsquarters: 100
[17]; [20]
  Plant response rating, Surinam grass: 0
[17]; [21]
  Plant response rating, Surinam grass: 0
[17]; preemergence
  Plant response rating (0 to 100), Surinam grass: 90
[17]; [22]
  Plant response rating, Surinam grass: 0
[18]; [20]
  Plant response rating, Bermudagrass: 100
[18]; [21]
  Plant response rating, Bermudagrass: 100
[18]; preemergence
  Plant response rating (0 to 100 where 0 is no effect and 100 is complete control), Bermudagrass: 100
[18]; [22]
  Plant response rating, Bermudagrass: 100
Sunflower [19]
  Plant response rating, Sunflower: 40

## CCC(C)c1ccn(C2CCN(c3ccc(F)c(C(F)(F)F)c3)C2=O)n1 (stereo not shown) [Compound 145]
Sunflower [1]
  Plant response rating, Sunflower: 50
Nightshade [2]
  Plant response rating (0 to 100), Nightshade: 90
[3]; [20]
  Plant response rating, Nutsedge: 0
[3]; [21]
  Plant response rating, Nutsedge: 0
[3]; preemergence
  Plant response rating (0 to 100), Nutsedge: 0
[3]; [22]
  Plant response rating, Nutsedge: 0
Corn (Zea mays); [20]
  Plant response rating, Corn: 20
Corn (Zea mays); [21]
  Plant response rating, Corn: 0
Corn (Zea mays); preemergence
  Plant response rating (0 to 100), Corn: 40
Corn (Zea mays); [22]
  Plant response rating, Corn: 40
Soybean (Glycine max); [20]
  Plant response rating, Soybean: 30
Soybean (Glycine max); [21]
  Plant response rating, Soybean: 20
Soybean (Glycine max); preemergence
  Plant response rating (0 to 100), Soybean: 60
Soybean (Glycine max); [22]
  Plant response rating, Soybean: 30
[4]; [20]
  Plant response rating, Cupgrass, Woolly: 100
[4]; [21]
  Plant response rating, Cupgrass, Woolly: 20
[4]; preemergence
  Plant response rating (0 to 100), Cupgrass, Woolly: 100
[4]; [22]
  Plant response rating, Cupgrass, Woolly: 100
[5]; [20]
  Plant response rating, Morningglory: 100
[5]; [21]
  Plant response rating, Morningglory: 0
[5]; [22]
  Plant response rating, Morningglory: 100
Kochia (Kochia scoparia); [20]
  Plant response rating, Kochia: 100
Kochia (Kochia scoparia); [21]
  Plant response rating, Kochia: 100
Kochia (Kochia scoparia); preemergence
  Plant response rating (0 to 100), Kochia: 100
Kochia (Kochia scoparia); [22]
  Plant response rating, Kochia: 100
Sunflower [6]
  Plant response rating, Sunflower: 0
Nightshade [7]; Rate 62 g/ha, scale 0 to 100
  Plant response rating, Nightshade: 0
Nightshade [7]; [20]
  Plant response rating, Nightshade: 10
Nightshade [7]; [23]
  Plant response rating, Nightshade: 20
[8]; [20]
  Plant response rating, Velvetleaf: 0
[8]; [21]
  Plant response rating, Velvetleaf: 0
[8]; preemergence
  Plant response rating (0 to 100), Velvetleaf: 20
[8]; [22]
  Plant response rating, Velvetleaf: 0
[9]; [20]
  Plant response rating, Crabgrass: 100
[9]; [21]
  Plant response rating, Crabgrass: 100
[9]; preemergence
  Plant response rating (0 to 100), Crabgrass: 100
[9]; [22]
  Plant response rating, Crabgrass: 100
[10]; [20]
  Plant response rating, Ragweed, Common: 0
[10]; [21]
  Plant response rating, Ragweed, Common: 0
[10]; preemergence
  Plant response rating (0 to 100), Ragweed, Common: 20
[10]; [22]
  Plant response rating, Ragweed, Common: 0
[11]; [20]
  Plant response rating, Cocklebur: 20
[11]; [21]
  Plant response rating, Cocklebur: 0
[11]; preemergence
  Plant response rating (0 to 100), Cocklebur: 60
[11]; [22]
  Plant response rating, Cocklebur: 50
[12]; [20]
  Plant response rating, Johnsongrass: 10
[12]; [21]
  Plant response rating, Johnsongrass: 0
[12]; preemergence
  Plant response rating (0 to 100), Johnsongrass: 90
[12]; [22]
  Plant response rating, Johnsongrass: 20
[13]; [20]
  Plant response rating, Pigweed: 100
[13]; [21]
  Plant response rating, Pigweed: 100
[13]; preemergence
  Plant response rating (0 to 100), Pigweed: 100
[13]; [22]
  Plant response rating, Pigweed: 100
[14]; [20]
  Plant response rating, Foxtail, Giant: 100
[14]; [21]
  Plant response rating, Foxtail, Giant: 100
[14]; preemergence
  Plant response rating (0 to 100), Foxtail, Giant: 100
[14]; [22]
  Plant response rating, Foxtail, Giant: 100
[15]; [20]
  Plant response rating, Goosegrass: 100
[15]; [21]
  Plant response rating, Goosegrass: 90
[15]; preemergence
  Plant response rating (0 to 100), Goosegrass: 100
[15]; [22]
  Plant response rating, Goosegrass: 100
[16]; [20]
  Plant response rating, Lambsquarters: 100
[16]; [21]
  Plant response rating, Lambsquarters: 100
[16]; preemergence
  Plant response rating (0 to 100), Lambsquarters: 100
[16]; [22]
  Plant response rating, Lambsquarters: 100
[17]; [20]
  Plant response rating, Surinam grass: 50
[17]; [21]
  Plant response rating, Surinam grass: 0
[17]; preemergence
  Plant response rating (0 to 100), Surinam grass: 100
[17]; [22]
  Plant response rating, Surinam grass: 90
[18]; [20]
  Plant response rating, Bermudagrass: 100
[18]; [21]
  Plant response rating, Bermudagrass: 60
[18]; preemergence
  Plant response rating (0 to 100 where 0 is no effect and 100 is complete control), Bermudagrass: 100
[18]; [22]
  Plant response rating, Bermudagrass: 100
Sunflower [19]
  Plant response rating, Sunflower: 0
